Counter-ions that a name gives are not always drawn. Bounds are passed on as bounds.

This assay deals with T1, Zinc finger protein mex-5 (Caenorhabditis elegans, UniProt Q9XUB2).
T1 sequence (Q9XUB2 whole entry): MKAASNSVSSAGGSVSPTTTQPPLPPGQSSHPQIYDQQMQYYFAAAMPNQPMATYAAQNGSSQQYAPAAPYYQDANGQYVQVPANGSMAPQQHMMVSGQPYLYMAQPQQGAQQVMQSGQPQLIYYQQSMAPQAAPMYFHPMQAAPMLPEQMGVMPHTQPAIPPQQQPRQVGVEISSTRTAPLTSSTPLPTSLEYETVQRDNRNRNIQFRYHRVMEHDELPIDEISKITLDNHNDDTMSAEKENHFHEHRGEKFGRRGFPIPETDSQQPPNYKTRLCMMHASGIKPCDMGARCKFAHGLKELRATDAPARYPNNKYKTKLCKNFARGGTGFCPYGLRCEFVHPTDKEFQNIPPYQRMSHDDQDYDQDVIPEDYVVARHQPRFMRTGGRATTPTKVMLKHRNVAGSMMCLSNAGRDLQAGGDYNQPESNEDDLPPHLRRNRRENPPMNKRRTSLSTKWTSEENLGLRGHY
Description: MEX-5/TCR-2 RNA interaction inhibitors, dose response, biochemical, C. elegans, fluorescence polarization (AID 1960). A general note: In fluorescence polarisation assays a small probe gives low polarisation when free and higher when bound to something large.
Take `C=c1cc(O)c(CN(C)C)c2oc(=Cc3ccco3)c(O)c12` [(2Z)-7-[(dimethylamino)methyl]-2-(furan-2-ylmethylidene)-6-hydroxy-4-methyl-1-benzofuran-3-one]: the response was half-maximal at 39.8 µM (EC50). For `C[C@H]1c2cccc(O)c2C(=O)C2C(=O)[C@]3(O)C(=O)C(C(N)=O)C(=O)[C@@H](N(C)C)C3C(O)C21` (stereo partly drawn) [(2Z,4S,5S,6R,12aS)-2-[amino(hydroxy)methylidene]-4-(dimethylamino)-5,10,11,12a-tetrahydroxy-6-methyl-4a,5,5a,6-tetrahydro-4H-tetracene-1,3,12-trione;ethanol;hydrate;hydrochloride], the EC50 (commonly the concentration that produces a half-maximal response) turned out to be 45.3 µM. In the case of `Cn1c2cc(=N)ccc-2c2ccc(N)cc2c1-c1ccccc1` [(3-amino-5-methyl-6-phenyl-phenanthridin-5-ium-8-yl)amine;bromide] it was 5.36 µM; in that of `O=C1N=c2ccccc2=C1NNc1cccc(Cl)c1` [(3E)-1H-indole-2,3-dione 3-[(3-chlorophenyl)hydrazone]], 45.4 µM.

Compound `Cc1ccc2oc(=O)c(CC(=O)CC(C)C)nc2c1` [(3Z)-3-(2-keto-4-methyl-pentylidene)-6-methyl-4H-1,4-benzoxazin-2-one] registered an EC50 above 300 µM. `COc1ccc(C(=O)CC2=NCC3c4ccccc4CCN3C2=O)cc1` (stereo unspecified) [(3Z)-3-[2-(4-methoxyphenyl)-2-oxidanylidene-ethylidene]-2,6,7,11b-tetrahydro-1H-pyrazino[2,1-a]isoquinolin-4-one] yielded an EC50 above 300 µM.

Turning to `Cc1ccc(C(=O)Cc2nc3ccccc3oc2=O)cc1` [(3Z)-3-[2-(4-methylphenyl)-2-oxidanylidene-ethylidene]-4H-1,4-benzoxazin-2-one], the EC50 is above 300 µM. In the case of `Cc1ccc2oc(=O)c(CC(=O)c3cccs3)nc2c1` [(3Z)-3-[2-keto-2-(2-thienyl)ethylidene]-6-methyl-4H-1,4-benzoxazin-2-one] it was 6.82 µM.

As for `Cc1ccc(C(=O)Cc2nc3cc(C)ccc3oc2=O)cc1` [(3Z)-3-[2-keto-2-(p-tolyl)ethylidene]-6-methyl-4H-1,4-benzoxazin-2-one], a half-maximal effect (EC50) was put at 1.64 µM. In the case of `Cc1ccc(NC=C2SC(=O)c3ccccc32)c(C)c1` [(3Z)-3-[(2,4-dimethylanilino)methylene]isobenzothiophen-1-one] it was above 300 µM; in that of `O=C(Cc1nc2ccccc2n(-c2ccccc2)c1=O)c1ccccc1` [(3Z)-3-phenacylidene-1-phenyl-4H-quinoxalin-2-one], 6.1 µM; in that of `O=C(Cc1nc2cc(Cl)ccc2oc1=O)c1cccs1` [(3Z)-6-chloranyl-3-(2-oxidanylidene-2-thiophen-2-yl-ethylidene)-4H-1,4-benzoxazin-2-one], 153 µM. `O=C(Cc1nc2cc(Cl)ccc2oc1=O)c1ccco1` [(3Z)-6-chloranyl-3-[2-(furan-2-yl)-2-oxidanylidene-ethylidene]-4H-1,4-benzoxazin-2-one] showed an EC50 above 300 µM. On to `CN=c1scc(C)n1N=Cc1ccc(O)c(O)c1O` [(4E)-2,3-dihydroxy-4-[[(4-methyl-2-methylimino-1,3-thiazol-3-yl)amino]methylidene]cyclohexa-2,5-dien-1-one], for which the midpoint of the response, the EC50, lay at 67.1 µM. The result for `Cc1c(NC=C2C(=O)N(C)C(=O)c3ccccc32)c(=O)n(-c2ccccc2)n1C` [(4E)-4-[[(1,5-dimethyl-3-oxo-2-phenyl-4-pyrazolyl)amino]methylidene]-2-methylisoquinoline-1,3-dione] reads above 300 µM; that for `Cc1nnc(SC(C(=O)O)=C2C(=O)Nc3ccccc32)[nH]1` [(5-Methyl-4H-[1,2,4]triazol-3-ylsulfanyl)-[2-oxo-1,2-dihydro-indol-(3E)-ylidene]-acetic acid], 25.2 µM. In the case of `COc1ccc(OC)c(N2C(=O)NC(=O)C(=Cc3c[nH]c4ccccc34)C2=O)c1` [(5E)-1-(2,5-dimethoxyphenyl)-5-(1H-indol-3-ylmethylene)pyrimidine-2,4,6(1H,3H,5H)-trione] it was above 300 µM. The result for `O=C1NC(=O)N(Cc2ccccc2Cl)C(=O)C1=CNc1ccc(F)cc1` [(5E)-1-(2-chlorobenzyl)-5-[(4-fluoroanilino)methylene]barbituric acid] reads above 300 µM; that for `Cc1c(NC=C2C(=O)NC(=O)N(Cc3ccco3)C2=O)c(=O)n(-c2ccccc2)n1C` [(5E)-1-(2-furfuryl)-5-[[(3-keto-1,5-dimethyl-2-phenyl-3-pyrazolin-4-yl)amino]methylene]barbituric acid], above 300 µM.

As to `C=c1c(C(=O)OC)c(O)c(=Cc2cccs2)n1-c1ccc(Cl)cc1` [(5E)-1-(4-chlorophenyl)-2-methyl-4-oxo-5-(thiophen-2-ylmethylidene)-3-pyrrolecarboxylic acid methyl ester], the EC50 was above 300 µM. In the case of `Cc1cc(C=C2C(=O)NC(=O)N(c3ccc(Cl)cc3)C2=O)c(C)n1C` [(5E)-1-(4-chlorophenyl)-5-[(1,2,5-trimethyl-3-pyrrolyl)methylidene]-1,3-diazinane-2,4,6-trione] it was 47.7 µM; in that of `CCOc1ccc(N2C(=O)NC(=O)C(=Cc3c[nH]c4ccccc34)C2=O)cc1` [(5E)-1-(4-ethoxyphenyl)-5-(1H-indol-3-ylmethylidene)-1,3-diazinane-2,4,6-trione], 47 µM.

Compound `O=C1NC(=O)N(CCc2ccc(F)cc2)C(=O)C1=CNCCCn1ccnc1` [(5E)-1-[2-(4-fluorophenyl)ethyl]-5-[(3-imidazol-1-ylpropylamino)methylene]barbituric acid] came in with an EC50 above 300 µM.

`C=CCN1C(=O)NC(=O)C(=CNc2ccc(N(CC)CC)cc2)C1=O` [(5E)-1-allyl-5-[[4-(diethylamino)anilino]methylene]barbituric acid] gave an EC50 of 113 µM. In the case of `CCN(CC)c1ccc(NC=C2C(=O)NC(=O)N(Cc3ccccc3)C2=O)cc1` [(5E)-1-benzyl-5-[[4-(diethylamino)anilino]methylene]barbituric acid] it was above 300 µM; in that of `O=C1NC(=O)N(Cc2ccccc2)C(=O)C1=CNc1ccc(CN2CCOCC2)cc1` [(5E)-1-benzyl-5-[[4-(morpholin-4-ylmethyl)anilino]methylidene]-1,3-diazinane-2,4,6-trione], above 300 µM; in that of `Cc1c(NC=C2C(=O)NC(=O)N(Cc3ccccc3)C2=O)c(=O)n(-c2ccccc2)n1C` [(5E)-1-benzyl-5-[[(1,5-dimethyl-3-oxo-2-phenylpyrazol-4-yl)amino]methylidene]-1,3-diazinane-2,4,6-trione], above 300 µM.

For the compound `CCCCCCN1C(=O)NC(=O)C(=CNCCCn2ccnc2)C1=O` [(5E)-1-hexyl-5-[[3-(1-imidazolyl)propylamino]methylidene]-1,3-diazinane-2,4,6-trione], the EC50 was above 300 µM. Compound `O=C1NC(=S)N(c2ccccc2)C(=O)C1=Cc1ccco1` [(5E)-5-(2-furanylmethylidene)-1-phenyl-2-sulfanylidene-1,3-diazinane-4,6-dione] displayed an EC50 of 254 µM.

In the case of `O=C1NC(=O)N(CCc2ccccc2)C(=O)C1=CNCCCn1ccnc1` [(5E)-5-[(3-imidazol-1-ylpropylamino)methylene]-1-phenethyl-barbituric acid], the EC50 is above 300 µM. Take `COc1ccc(N2C(=O)NC(=O)C(=Cc3c[nH]c4ccc(Br)cc34)C2=O)c(OC)c1` [(5E)-5-[(5-bromo-1H-indol-3-yl)methylene]-1-(2,4-dimethoxyphenyl)pyrimidine-2,4,6(1H,3H,5H)-trione]: the EC50 is above 300 µM.

Values taken from BindingDB's records for doi:10.7270/Q2D798VP (Broad Institute, 2009).
